Experimental data as given in ChEMBL document CHEMBL6096667, “Design, synthesis and biological evaluation of biaryl amide derivatives as modulators of multi-drug resistance” (Eur J Med Chem, 2025).

Columns and labels:
A2780/Taxol [1] = experiment: Inhibition of cell proliferation of human Paclitaxel-resistant A2780/T cells incubated for 48 hrs in presence of PTX by MTT assay; assay type: functional, cell-based
A2780/Taxol [2] = experiment: Reversal of paclitaxel resistance in human Paclitaxel-resistant A2780/T cells assessed as reversal fold by measuring ratio of paclitaxel IC50 to paclitaxel IC50 in presence of test compound at 1 uM incubated for 48 hrs by MTT assay; assay type: functional
A2780/Taxol [3] = experiment: Reversal of paclitaxel resistance in human Paclitaxel-resistant A2780/T cells by MTT assay; assay type: functional, cell-based
[4] = target: T1, ATP-dependent translocase ABCB1 (Homo sapiens, UniProt P08183); experiment: Binding affinity to CM5 sensor chip-immobilized human P-gp assessed as dissociation constant by SPR analysis
T1 sequence (P08183 whole entry): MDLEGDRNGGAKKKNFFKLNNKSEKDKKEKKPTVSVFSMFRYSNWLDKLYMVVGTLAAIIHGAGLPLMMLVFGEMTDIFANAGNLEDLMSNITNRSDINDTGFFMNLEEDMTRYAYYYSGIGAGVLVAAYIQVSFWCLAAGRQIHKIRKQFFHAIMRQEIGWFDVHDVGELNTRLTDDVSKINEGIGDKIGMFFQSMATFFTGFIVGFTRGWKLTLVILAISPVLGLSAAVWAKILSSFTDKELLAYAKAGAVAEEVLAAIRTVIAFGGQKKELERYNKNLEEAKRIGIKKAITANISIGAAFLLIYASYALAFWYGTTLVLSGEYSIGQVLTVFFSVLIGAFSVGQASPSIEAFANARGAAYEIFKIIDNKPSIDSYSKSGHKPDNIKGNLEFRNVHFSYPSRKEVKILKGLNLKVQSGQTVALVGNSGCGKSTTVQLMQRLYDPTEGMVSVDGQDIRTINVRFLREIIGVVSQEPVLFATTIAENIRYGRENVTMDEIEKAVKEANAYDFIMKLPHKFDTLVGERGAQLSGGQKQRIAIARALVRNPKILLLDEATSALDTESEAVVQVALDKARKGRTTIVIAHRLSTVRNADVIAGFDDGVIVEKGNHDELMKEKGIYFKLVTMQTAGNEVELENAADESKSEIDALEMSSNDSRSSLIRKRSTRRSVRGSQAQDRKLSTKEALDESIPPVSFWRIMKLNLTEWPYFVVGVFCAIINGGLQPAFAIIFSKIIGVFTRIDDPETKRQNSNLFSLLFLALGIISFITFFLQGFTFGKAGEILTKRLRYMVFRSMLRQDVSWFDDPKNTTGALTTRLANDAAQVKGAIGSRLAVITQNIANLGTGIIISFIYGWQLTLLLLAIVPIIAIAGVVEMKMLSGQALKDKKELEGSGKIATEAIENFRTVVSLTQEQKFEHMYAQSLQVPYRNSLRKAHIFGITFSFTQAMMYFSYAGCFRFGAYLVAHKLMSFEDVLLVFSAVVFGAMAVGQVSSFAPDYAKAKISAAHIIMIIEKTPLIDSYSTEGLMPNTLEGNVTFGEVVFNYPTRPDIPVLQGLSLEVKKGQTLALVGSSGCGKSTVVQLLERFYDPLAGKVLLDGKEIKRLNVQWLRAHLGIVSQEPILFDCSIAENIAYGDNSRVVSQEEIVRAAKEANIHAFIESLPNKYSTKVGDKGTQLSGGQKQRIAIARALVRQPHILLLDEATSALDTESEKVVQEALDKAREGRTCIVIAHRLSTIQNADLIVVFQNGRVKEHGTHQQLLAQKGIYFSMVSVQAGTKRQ

[5] = target: T2, Broad substrate specificity ATP-binding cassette transporter ABCG2 (Homo sapiens, UniProt Q9UNQ0); experiment: Inhibition of ABCG2 in human Paclitaxel-resistant A2780/T cells at high concentration incubated for 48 hrs by Western blot analysis; assay type: cell-based; conditions: paclitaxel-resistant a2780/t cell
T2 sequence (Q9UNQ0 whole entry): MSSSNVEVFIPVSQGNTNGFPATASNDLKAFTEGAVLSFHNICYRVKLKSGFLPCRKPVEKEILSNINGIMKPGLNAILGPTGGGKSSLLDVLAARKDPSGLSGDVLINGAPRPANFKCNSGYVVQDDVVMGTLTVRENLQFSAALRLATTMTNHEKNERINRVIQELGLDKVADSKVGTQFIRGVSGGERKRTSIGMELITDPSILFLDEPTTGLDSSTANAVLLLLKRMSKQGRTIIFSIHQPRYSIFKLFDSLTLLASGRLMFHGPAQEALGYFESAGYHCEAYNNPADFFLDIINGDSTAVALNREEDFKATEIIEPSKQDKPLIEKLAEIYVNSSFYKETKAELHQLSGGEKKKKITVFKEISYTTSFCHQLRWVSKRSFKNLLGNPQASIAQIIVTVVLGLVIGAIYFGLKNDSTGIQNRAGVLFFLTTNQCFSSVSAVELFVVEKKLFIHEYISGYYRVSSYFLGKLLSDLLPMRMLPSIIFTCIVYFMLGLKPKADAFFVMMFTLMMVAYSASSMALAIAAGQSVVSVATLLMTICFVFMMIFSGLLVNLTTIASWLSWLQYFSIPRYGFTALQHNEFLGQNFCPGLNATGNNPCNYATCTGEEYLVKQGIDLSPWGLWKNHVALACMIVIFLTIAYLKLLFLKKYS

[6] = target: T1, ATP-dependent translocase ABCB1; experiment: Inhibition of P-gp-mediated drug efflux of Rh123 in human Paclitaxel-resistant A2780/T cells at 2 uM measured upto 120 mins by flow cytometry; assay type: cell-based; conditions: paclitaxel-resistant a2780/t cell, 2 h
[7] = target: T1, ATP-dependent translocase ABCB1; experiment: Inhibition of P-gp in human Paclitaxel-resistant A2780/T cells incubated for 48 hrs by Western blot analysis; assay type: cell-based; conditions: paclitaxel-resistant a2780/t cell, 10 µM
[8] = Reversal of paclitaxel resistance in human A2780/CDDP cells assessed as reversal fold by measuring ratio of paclitaxel IC50 to paclitaxel IC50 in presence of test compound by MTT assay; assay type: functional
A2780/Taxol [9] = experiment: Inhibition of cell proliferation of human Paclitaxel-resistant A2780/T cells at 10 uM incubated for 48 hrs in presence of PTX by MTT assay relative to control; assay type: functional
A2780/Taxol [10] = experiment: Inhibition of cell proliferation of human Paclitaxel-resistant A2780/T cells at 1 uM incubated for 48 hrs in presence of PTX by MTT assay relative to control; assay type: functional
[11] = target: Multidrug resistance-associated protein 1 (Homo sapiens, UniProt P33527); experiment: Inhibition of MRP1 in human Paclitaxel-resistant A2780/T cells at high concentration incubated for 48 hrs by Western blot analysis; assay type: cell-based; conditions: paclitaxel-resistant a2780/t cell
Sequence of Multidrug resistance-associated protein 1 (P33527 whole entry): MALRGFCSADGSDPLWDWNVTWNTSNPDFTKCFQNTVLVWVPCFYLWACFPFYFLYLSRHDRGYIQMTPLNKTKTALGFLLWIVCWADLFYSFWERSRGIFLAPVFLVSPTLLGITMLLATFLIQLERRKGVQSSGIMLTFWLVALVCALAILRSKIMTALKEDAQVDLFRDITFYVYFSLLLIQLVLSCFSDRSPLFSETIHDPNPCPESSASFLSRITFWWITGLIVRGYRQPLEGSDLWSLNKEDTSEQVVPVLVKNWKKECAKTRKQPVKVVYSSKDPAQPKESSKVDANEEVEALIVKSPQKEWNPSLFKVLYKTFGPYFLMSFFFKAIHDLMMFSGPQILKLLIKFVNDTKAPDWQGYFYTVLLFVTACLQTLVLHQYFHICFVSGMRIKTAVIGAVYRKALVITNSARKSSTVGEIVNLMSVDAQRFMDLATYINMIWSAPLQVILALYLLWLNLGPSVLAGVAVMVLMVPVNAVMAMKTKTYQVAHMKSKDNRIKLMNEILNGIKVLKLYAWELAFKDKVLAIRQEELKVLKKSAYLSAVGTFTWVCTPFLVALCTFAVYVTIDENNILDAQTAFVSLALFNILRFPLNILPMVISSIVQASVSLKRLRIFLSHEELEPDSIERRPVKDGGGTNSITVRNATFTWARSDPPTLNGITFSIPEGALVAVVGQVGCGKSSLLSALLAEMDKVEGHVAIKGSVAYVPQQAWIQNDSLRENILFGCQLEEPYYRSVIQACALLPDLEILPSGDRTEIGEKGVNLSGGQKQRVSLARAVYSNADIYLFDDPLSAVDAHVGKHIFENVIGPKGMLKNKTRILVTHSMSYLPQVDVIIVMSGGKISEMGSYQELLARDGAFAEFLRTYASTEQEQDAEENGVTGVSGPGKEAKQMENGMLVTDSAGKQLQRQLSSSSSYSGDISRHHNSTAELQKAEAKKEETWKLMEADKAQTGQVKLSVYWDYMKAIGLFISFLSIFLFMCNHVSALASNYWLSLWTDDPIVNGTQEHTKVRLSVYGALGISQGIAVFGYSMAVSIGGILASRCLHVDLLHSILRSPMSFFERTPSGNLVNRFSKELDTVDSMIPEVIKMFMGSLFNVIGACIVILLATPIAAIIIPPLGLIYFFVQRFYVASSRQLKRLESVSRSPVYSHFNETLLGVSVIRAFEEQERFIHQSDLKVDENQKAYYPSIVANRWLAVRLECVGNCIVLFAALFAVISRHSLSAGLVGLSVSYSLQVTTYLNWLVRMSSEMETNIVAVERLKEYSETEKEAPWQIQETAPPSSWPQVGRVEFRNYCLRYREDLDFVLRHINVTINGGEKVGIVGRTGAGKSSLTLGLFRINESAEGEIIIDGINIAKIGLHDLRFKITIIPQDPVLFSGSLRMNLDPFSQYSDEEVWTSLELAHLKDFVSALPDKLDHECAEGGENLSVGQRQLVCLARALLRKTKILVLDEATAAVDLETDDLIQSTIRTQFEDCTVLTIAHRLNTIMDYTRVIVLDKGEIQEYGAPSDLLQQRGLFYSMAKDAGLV

[12] = Reversal of paclitaxel resistance in human CDDP-resistant A549 cells assessed as reversal fold by measuring ratio of paclitaxel IC50 to paclitaxel IC50 in presence of test compound by MTT assay; assay type: functional, CDDP-resistant A549 cell
A2780/Taxol [13] = experiment: Induction of intracellular Rh123 accumulation in human Paclitaxel-resistant A2780/T cells incubated for 4 hrs by flow cytometry; assay type: functional, cell-based; conditions: dose 0.5-2 µM

IC50 (A2780/Taxol [1]): > 50 µM | EC50 (A2780/Taxol [3]): 88 nM | Kd [4]: 798 nM | inhibition (INH) [5]: Not_active | inhibition (INH) [6]: Active | inhibition (INH) [7]: Dose-dependent-effect | inhibition (INH) [11]: Active
SMILES: COc1cc(-c2ccc(CNC(=O)c3cn(C)c4ccccc34)nc2)cc(OC)c1OC
Ratio IC50 (A2780/Taxol [2]): 156 | Ratio IC50 [8]: 11 | inhibition at 10 µM (A2780/Taxol [9]): 88% | inhibition at 1 µM (A2780/Taxol [10]): 55% | Ratio IC50 [12]: 7 | Activity (A2780/Taxol [13]): Dose-dependent-effect; Activity Was Observed Superior To Vrp
